Patent publication US20240293558A1, “KRAS INHIBITOR CONJUGATES” (Erasca, Inc., priority 2021, published 2024)

Molecular target: T1, KRAS 4B G12C protein (Homo sapiens, UniProt P01116, G12C)
T1 construct: made in house; host or cells: E. coli BL21
Test: In vitro covalent adduct formation (CAF) assay, LC-MS
Format: binding
Conditions: 5 μM KRAS 4B G12C, 10 μM compound, 22° C.
Experimental: This Example provides a protocol for assessing covalent adduct formation (CAF) between the compounds provided herein and KRAS.
In vitro covalent adduct formation assay: Covalent adduct formation (CAF) reactions between Cys12 of the KRAS 4B G12C protein and embodiments of the application were measured in vitro using liquid chromatography-mass spectrometry (LC-MS).
Recombinant Human KRAS 4B protein containing the G12C mutation was used in compound screening experiments. This protein contained 188 amino acids in total, including an N-terminal 6-Histidine tag, followed by a Tobacco Etch Virus (TEV) tag, followed by residues 1-169 of the native KRAS 4B sequence. The exact mass of the protein was 21,310 Da as determined by mass spectrometry. […]
The recombinant protein was expressed in E. coli BL21 cells and purified using affinity chromatography via a Ni-NTA column. […] The intact mass of the protein samples was measured by LC-MS using a QExactive+mass spectrometer (Thermo Scientific). An amount of 500 ng total protein was injected onto a C8 reverse phase column, eluted with a seven-minute gradient of 30%-90% acetonitrile/0.10% formic acid, and analyzed for intact mass by the mass spectrometer. Adducts identified were confirmed to be within 1 Dalton of the expected mass, and the relative ratios of free:adduct protein were used to quantify the percentage of protein bound by the compound. […]

Structure (SMILES)	% CAF at 5 min
C=CC(=O)N1CCN(c2nc(OCCN3CCC(COc4cc([C@H](C(=O)N5C[C@H](O)C[C@H]5C(=O)N[C@@H](C)c5ccc(-c6c(F)cccc6F)cc5)C(C)C)on4)CC3)nc3c(F)c(-c4nc(N)cc(C)c4C(F)(F)F)c(Cl)cc23)[C@@H](C)C1 (atropisomer, axis not shown) [Example 200, (2S,4R)-1-((R)-2-(3-((1-(2-((4-((S)-4-acryloyl-2-methylpiperazin-1-yl)-7-((R)-6-amino-4-methyl-3-(trifluoromethyl)pyridin-2-yl)-6-chloro-8-fluoroquinazolin-2-yl)oxy)ethyl)piperidin-4-yl)methoxy)isoxazol-5-yl)-3-methylbutanoyl)-N—((S)-1-(2′,6′-difluoro-[1,1′-biphenyl]-4-yl)ethyl)-4-hydroxypyrrolidine-2-carboxamide]	97%
C=CC(=O)N1CCN(c2nc(OCCN3CCC4(CC3)CN(c3cc([C@H](C(=O)N5C[C@H](O)C[C@H]5C(=O)N[C@@H](C)c5ccc(-c6c(F)cccc6F)cc5)C(C)C)on3)C4)nc3c(F)c(-c4nc(N)cc(C)c4C(F)(F)F)c(Cl)cc23)[C@@H](C)C1 (atropisomer, axis not shown) [Example 201, (2S,4R)-1-((R)-2-(3-(7-(2-(((R)-4-((S)-4-acryloyl-2-methylpiperazin-1-yl)-7-(6-amino-4-methyl-3-(trifluoromethyl)pyridin-2-yl)-6-chloro-8-fluoroquinazolin-2-yl)oxy)ethyl)-2,7-diazaspiro[3.5]nonan-2-yl)isoxazol-5-yl)-3-methylbutanoyl)-N—((S)-1-(2′,6′-difluoro-[1,1′-biphenyl]-4-yl)ethyl)-4-hydroxypyrrolidine-2-carboxamide]	98%
